Measured values from patent US12622918B2, “Formulations and dosages for administering a compound that inhibits MCL1 protein” (Amgen Inc., priority 2019, dated 2026).

Legend:
[1] = test system: OPM2-Luc tumor xenografts; test: OPM2-Luc xenograft efficacy, once-weekly dosing; assay type: in vivo
Experimental: Female athymic nude mice were injected subcutaneously with 5×10^6 human OPM2-Luc multiple myeloma tumor cells. […] Tumor volume and body weight were measured twice per week through day 26. […] In the 50 mg/kg intraperitoneal group, 98% regression was observed (p<0.0001) (FIG. 6).

[2] = test system: dog blood; test: In vitro hemolysis of whole blood, dog; conditions: 0.1 and 1.0 mg/mL, vehicles containing hydroxypropyl-β-cyclodextrin
[3] = Source text: Nonclinical safety studies on the compound of Formula I consisted of an exploratory 14-day dog IV toxicology study, Good Laboratory Practices (GLP) 28-day rat and dog IV toxicology studies, in vitro exploratory genotoxicity studies (GLP human ether-á-go-go related gene [hERG] and non-GLP isolated rabbit heart) to characterize potential cardiovascular effects. The doses selected for the 28-day IV rat and dog toxicology studies were intended to characterize the toxicity of the compound of Formula I and provide data to support a starting dose in the first-in-human (FIH) study. An IV route of administration and a dosing schedule of 2 days on/5 days off was used to support the anticipated clinical route and dosing schedule. In a 28-day GLP rat IV infusion toxicology study, the severely toxic dose in 10% of animals (STD10) was 60 mg/kg based on mortality at 120 mg/kg and in a 28-day GLP IV toxicology study in dogs, the highest-nonseverely-toxic dose (HNSTD) was 10 mg/kg based on mortality at 20 mg/kg.
[4] = test system: Namalwa; test: Cell viability (CellTiterGlo), Namalwa; assay type: cell-based; conditions: NHL, 24 hours, 10% FBS, read-out: AMS 176 IC50
[5] = biological target: Rabbit MCL1 (Oryctolagus cuniculus, UniProt G1T2Q0); test: Cell-free TR-FRET BIM-binding assay, Rabbit MCL1; conditions: BIM-binding partner Rabbit MCL1; n = 3
Sequence of Rabbit MCL1 (G1T2Q0 1-352): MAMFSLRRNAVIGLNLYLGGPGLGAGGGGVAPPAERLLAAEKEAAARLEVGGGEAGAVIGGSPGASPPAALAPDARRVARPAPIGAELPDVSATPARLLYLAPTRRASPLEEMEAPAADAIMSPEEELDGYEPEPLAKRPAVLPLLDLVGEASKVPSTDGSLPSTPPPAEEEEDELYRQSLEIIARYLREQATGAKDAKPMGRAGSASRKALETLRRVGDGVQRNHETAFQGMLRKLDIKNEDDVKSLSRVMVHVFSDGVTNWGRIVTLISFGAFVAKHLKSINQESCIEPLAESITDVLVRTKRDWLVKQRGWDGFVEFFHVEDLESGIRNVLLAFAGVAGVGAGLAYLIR

[6] = test system: Toledo; test: Cell viability (CellTiterGlo), Toledo; assay type: cell-based; conditions: Homo sapiens, NHL, 24 hours, 10% FBS, read-out: AMS 176 IC50
[7] = in vivo
[8] = Plasma protein binding in vitro; assay type: in vitro ADME
[9] = test system: KMS-12-BM; test: Cell viability (CellTiterGlo), KMS-12-BM; assay type: cell-based; conditions: Homo sapiens, Multiple myeloma, 24 hours, 10% FBS, read-out: AMS 176 IC50
[10] = test system: RL; test: Cell viability (CellTiterGlo), RL; assay type: cell-based; conditions: Homo sapiens, NHL, 24 hours, 10% FBS, high dose 20 μM, read-out: AMS 176 IC50
[11] = test system: rat blood; test: In vitro hemolysis of whole blood, rat; conditions: 0.048, 0.12, 0.24, 1.2, and 2.4 mg/mL, vehicles containing hydroxypropyl-β-cyclodextrin
[12] = test system: subjects with relapsed/refractory multiple myeloma; test: Phase 1 FIH study, multiple myeloma part 1a (QD2); assay type: in vivo, human
Experimental: In part 1a, subjects were enrolled across 8 cohorts, with doses ranging from 30 to 240 mg/m^2 QD2. In part 1b, subjects were enrolled across 2 cohorts, with doses of 120/180-mg/m^2 or 120/240-mg/m^2.

[13] = test system: MM1R; test: Cell viability (CellTiterGlo), MM1R; assay type: cell-based; conditions: MM.1R, Multiple myeloma, 24 hours, 10% FBS, read-out: AMS 176 IC50
[14] = Pharmacokinetics in dogs; assay type: in vivo
Source text: The pharmacokinetics (PK) of the compound of Formula I after single intravenous (IV) or oral administration were characterized in male CD1 mice, female athymic nude mice, male Nu/Nu mice, male Sprague Dawley rats, male beagle dogs, and male cynomolgus monkeys. The clearance (CL) of the compound was low in mice, rats, dogs, and monkeys relative to their hepatic blood flow. Volume of distribution at steady state (Vss) in mice, rats, dogs, and monkeys was variable across the species.

[15] = test system: KMS-12-PE; test: Cell viability (CellTiterGlo), KMS-12-PE; assay type: cell-based; conditions: Homo sapiens, Multiple myeloma, 24 hours, 10% FBS, read-out: AMS 176 IC50
[16] = test system: TF-1; test: Cell viability (CellTiterGlo), TF-1; assay type: cell-based; conditions: Homo sapiens; TF-1, AML; 24 hours; 10% FBS; read-out: AMS 176 IC50
[17] = test system: caspase 3; test: Caspase 3 cleavage in OPM2-Luc tumor xenografts (PD); assay type: in vivo, mice; conditions: for induction of caspase 3 cleavage: 4-, vs vehicle p<0.05
Experimental: Activation of the pro-apoptotic pore-forming protein BAK and proteolytic cleavage of the cysteine-aspartic acid protease caspase 3 (hallmarks of the induction of apoptosis) in MCL1-dependent OPM2-Luc multiple myeloma tumor cells served as a PD assay. Female athymic nude mice were injected with 5×10^6 cells in 0.1 mL subcutaneously (SC). […] Mice were euthanized 2, 4, 8, 12, and 24 hours postdose (n=3/group), terminal plasma samples were collected for PK analysis, and tumors were halved and snap frozen in liquid nitrogen for PK and molecular analyses. Tumor lysates were prepared for evaluation of BAK activation and caspase 3 cleavage using an electrochemiluminescence immunoassay. Tumors treated with vehicle (25% HPβCD, pH 8) served as a negative control and indicated the baseline level of apoptosis.

SMILES: CO[C@H]1/C=C/C[C@H](C)[C@@H](C)S(=O)(=O)NC(=O)c2ccc3c(c2)N(C[C@@H]2CC[C@H]21)C[C@@]1(CCCc2cc(Cl)ccc21)CO3 [AMG 176]
- tumor regression ([1]; 50 mg/kg intraperitoneally once per week): 98%
- TGI ([1]; 50 mg/kg orally once per week): 97%
- animals tumor free ([1]; 100 mg/kg once per week, day 26): Five out of 10
- tumor growth inhibition (TGI) ([1]; 100 mg/kg once-weekly oral, as stated in summary b107): 70%
- tumor regression ([1]; 100 mg/kg orally once per week): 70%
- overt toxicity by changes in body weight ([1]; once-weekly dosing groups): No evidence of overt toxicity
- hemolysis of whole blood [2]: cased hemolysis
- genotoxicity [3]: not mutagenic or clastogenic
- IC50 [4]: 237 nM
- IC50 [5]: 0.191 nM
- IC50 [6]: 9700 nM
- phototoxicity [7]: not phototoxic
- plasma protein binding [8]: highly plasma-protein bound
- IC50 [9]: 15 nM
- IC50 [10]: > 20000 nM
- hemolysis of whole blood [11]: cased hemolysis
- Grade 3 adverse events, subjects ([12]; MM part 1a): 65%
- Serious adverse events, subjects ([12]; MM part 1a): 31%
- adverse events considered related to AMG 176, subjects ([12]; MM part 1a): 69%
- adverse events leading to discontinuation of investigational product ([12]; MM part 1a): No adverse event led to discontinuation
- anemia of grade 3 or higher ([12]; MM part 1a): 15%
- decreased neutrophil count of grade 3 or higher ([12]; MM part 1a): 8%
- decreased white blood cell count of grade 3 or higher ([12]; MM part 1a): 8%
- grade 4 adverse events, subjects ([12]; MM part 1a): 31%
- hypertension of grade 3 or higher ([12]; MM part 1a): 8%
- neutropenia of grade 3 or higher ([12]; MM part 1a): 31%
- related diarrhea ([12]; MM part 1a): 19%
- related nausea ([12]; MM part 1a): 23%
- related neutropenia ([12]; MM part 1a): 23%
- treatment-emergent adverse events, subjects ([12]; MM part 1a QD2, 26 subjects): 96%
- anemia, subjects ([12]; MM part 1a, any grade): 27%
- diarrhea, subjects ([12]; MM part 1a, any grade): 31%
- fatigue, subjects ([12]; MM part 1a, any grade): 27%
- nausea, subjects ([12]; MM part 1a, any grade): 35%
- neutropenia, subjects ([12]; MM part 1a, any grade): 31%
- dose-limiting toxicity (DLT) reported ([12]; MM part 1a, 1 subject in the 240 mg/m^2 cohort, fatal): tumor lysis syndrome
- exposures (Cmax and AUC) versus dose ([12]; MM part 1a, 25 subjects, preliminary): generally increased with increasing doses
- fatal adverse events ([12]; MM part 1a, hepatic failure (50 mg/m^2, not related), tumor lysis syndrome (240 mg/m^2, related)): Two
- IC50 [13]: 1140 nM
- mean terminal elimination half-life (t1/2,z) [14]: 10.8 h
- IC50 [15]: 131 nM
- IC50 [16]: 2090 nM
- induction of caspase 3 cleavage ([17]; 20 mg/kg oral gavage, 8-, and 12-hour time points): Statistically significant induction of caspase 3 cleavage
- induction of caspase 3 cleavage ([17]; 30 mg/kg oral gavage, 2-, 8-, and 12-hour time points): Statistically significant induction of caspase 3 cleavage
- induction of caspase 3 cleavage ([17]; 60 mg/kg oral gavage, 2-, 8-, 12-, and 24-hour time points): Statistically significant induction of caspase 3 cleavage
- induction of cleaved caspase 3 ([17]; 60 mg/kg, 2 hours postdose, persisted to 12 hours): approximately 7.5 fold
- cleaved caspase levels above control ([17]; 60 mg/kg, 24 hours postdose): 5 fold
